Entries after “also recorded” stand apart in the source; their conditions may differ.

Holding throughout (assay type): cell-based, human
For test [1], the system named is T47D cells inducibly expressing RAD51AP1-DYRK4 (E9-E2). Put plainly: Clonogenic assay, T47D cells inducibly expressing RAD51AP1-DYRK4 (E9-E2). The protocol:
(§1) Next, the sensitivity of the engineered T47D cells inducibly expressing RAD51AP1-DYRK4 or wtRAD51AP1 to MEK inhibition was assessed. The first FDA approved MEK inhibitor currently under phase II clinical trial for triple negative breast cancer (NCI 9455) called Trametinib was used for MEK inhibition. MEK inhibition requires longer term drug exposure to exert therapeutic effect (Xue, Z. et al. (2018)). Therefore, clonogenic assays on the T47D models were performed to assess the cell viability following trametinib treatment in the presence or absence of doxycycline induction. Since T47D cells express EGFR, the cells were also treated with lapatinib to observe the combinatory effect.
(§2) Clonogenic assay. The E9-E2 and wtRAD51AP1 expressing T47D cells were seeded at a density of 1000 cells/well in a 6-well plate with or without 200 ng/ml doxycycline treatment and incubated for 14-21 days. The colonies were stained with 0.5% crystal violet in 50% ethanol and counted using GelCount (Oxford Optronix Ltd.). The Trametinib (MEKi) and Lapatinib (EGFR/HER2 inhibitor) used for in vitro therapeutic studies were purchased from Selleck Chemicals. To test their therapeutic effects in the engineered T47D cells and other cell lines, cells (5000-10000, depending on the doubling time) were plated in 24-well for 24 hours prior to treatment with growth media containing trametinib, lapatinib or DMSO was replaced every 4 days for approximately 2 weeks. After this, cells were stained with 0.5% crystal violet in water containing 50% ethanol for 15 minutes at room temperature. The area and intensity of each well was measured using Image J. with Colony Area Plug In.

The next test deals with MDAMB361 cells. Nature of the test: Clonogenic assay, MDAMB361 cells. The protocol:
(§3) Since MDAMB361 is a HER2 positive cell line we also assessed the therapeutic effect of lapatinib treatment alone or in combination with trametinib.
as §2

For test [2], the system named is T47D cells inducibly expressing wtRAD51AP1. Put plainly: Clonogenic assay, T47D cells inducibly expressing wtRAD51AP1. The conditions noted are these: induction of wtRAD51AP1 expression. The protocol:
as §1
Clonogenic assay. The E9-E2 and wtRAD51AP1 expressing T47D cells were seeded at a density of 1000 cells/well in a 6-well plate with or without 200 ng/ml doxycycline treatment and incubated for 14-21 days. The colonies were stained with 0.5% crystal violet in 50% ethanol and counted using GelCount (Oxford Optronix Ltd.). The Trametinib (MEKi) and Lapatinib (EGFR/HER2 inhibitor) used for in vitro therapeutic studies were purchased from Selleck Chemicals. […] The area and intensity of each well was measured using Image J. with Colony Area Plug In.

For test [3], the system named is HER2/PI3K/AKT/Raptor activation. Put plainly: Western blot of engineered T47D cells after trametinib: HER2/PI3K/AKT/Raptor. Conditions: 0.5uM trametinib, 24 hours. The protocol:
(§4) Compensative HER2/PI3K/AKT and MAP3K1/JNK/JUN activation has been reported to mediate resistance to MEK inhibitors (Avivar-Valderas, A. et al. (2018); Maher, C.A. et al. (2009)). We thus examined if RAD51AP1-DYRK4 and wtRAD51AP1 differentially modulate these survival pathways following MEK inhibition. To test this, we treated the engineered T47D cells with 0.5uM of trametinib or vehicle for 24 hours, to assess the early signaling changes following trametinib treatment. […] In contrast, this compensatory signaling was activated in T47D cells overexpressing wtRAD51AP1 following MEK inhibition (FIG. 7A). In addition, RAD51AP1-DYRK4 also repressed MAP3K1 protein level and JNK-JUN phosphorylation under MEK inhibition.
(§5) Western blot. For immunoblot analysis, E9-E2 and wtRAD51AP1 expression was induced in transduced T47D cells with 200 ng/ml doxycycline for one week. Total proteins were extracted by homogenizing the cells in RIPA Lysis Buffer (Sigma-Aldrich), supplemented with complete protease inhibitor cocktail tablet (Roche Diagnostics), 50 mM beta-Glycerophosphate, 1 mM sodium orthovanadate, 1 mM sodium fluoride, and 1 mM PMSF. Thirty micrograms of protein extracts were denatured in sample buffer, separated by SDS-PAGE, and transferred onto a nitrocellulose membrane (Invitrogen). The membranes were blocked and incubated overnight at 4° C. with primary antibodies. […]
In general terms: In western blotting, separated proteins are transferred to a membrane and probed.

The next test has as its system HCC1937 cells. Put plainly: Clonogenic assay, HCC1937 cells. Conditions: HCC1937 overexpressing RAD51AP1-DYRK4, compared to MCF7, HCC38, HCC1428, and ZR-75-30 cell lines. The protocol: as §3, §2
Test [4] concerns MAP3K1 protein level and JNK-JUN phosphorylation. Put plainly: Western blot of engineered T47D cells after trametinib: MAP3K1/JNK/JUN. Conditions: 0.5uM trametinib, 24 hours. The protocol: as §4, §5
The mark [5] stands for this setting: T47D cells overexpressing RAD51AP1-DYRK4.

As for `CS(=O)(=O)CCNCc1ccc(-c2ccc3ncnc(Nc4ccc(OCc5cccc(F)c5)c(Cl)c4)c3c2)o1` [lapatinib, Lapatinib], the “therapeutic benefit of lapatinib alone (clonogenic assay)” value in test [1] (engineered T47D cells) is listed as “did not result in additional therapeutic benefits; also recorded: did not show additional therapeutic benefits”. The “therapeutic benefit of lapatinib in combination with trametinib (clonogenic assay)” value in test [1] (engineered T47D cells, combination with trametinib) was “did not result in additional therapeutic benefits; also recorded: did not show additional therapeutic benefits”. Further, the “therapeutic effect of lapatinib alone (clonogenic assay)” value in the test with MDAMB361 cells (MDAMB361, HER2 positive) is “highly resistant; also recorded: resistance”. Further, the “therapeutic effect of lapatinib in combination with trametinib (clonogenic assay)” value in the test with MDAMB361 cells (MDAMB361, combination with trametinib) is recorded as “highly sensitive”.

`CC(=O)Nc1cccc(-n2c(=O)n(C3CC3)c(=O)c3c(Nc4ccc(I)cc4F)n(C)c(=O)c(C)c32)c1` [trametinib]: the “sensitivity to trametinib (clonogenic assay, cell viability)” value in test [1] (T47D cells, doxycycline-induced ectopic RAD51AP1-DYRK4 (E9-E2) expression vs absence of induction) is “significantly increased sensitivity”. Besides, the figures for the “increased sensitivity to trametinib (clonogenic assay, cell viability)” value in test [2] and in test [2] (listed as Trametinib) were “not observed” and “not”, respectively. Besides, in test [3] (setting [5]), the “HER2/PI3K/AKT/Raptor activation under MEK inhibition (Western blot)” value is listed as “attenuates”. Also, in test [3] (T47D cells overexpressing wtRAD51AP1), the “compensatory HER2/PI3K/AKT/Raptor signaling following MEK inhibition (Western blot)” value is listed as “activated; also recorded: compensatory activation”. For the same compound, the “sensitivity to trametinib treatment (clonogenic assay)” value in the test with HCC1937 cells is reported as “markedly higher sensitivity”; with MDAMB361 cells (MDAMB361 overexpressing RAD51AP1-DYRK4, compared to MCF7, HCC38, HCC1428, and ZR-75-30 cell lines), “markedly higher sensitivity”. Further, the “MAP3K1/JNK/JUN signaling following MEK inhibition (Western blot)” value in test [4] (T47D cells ectopically expressing wtRAD51AP1) is given as “did not observe activation”. In test [4] (setting [5]), the “MAP3K1 protein level and JNK-JUN phosphorylation under MEK inhibition (Western blot)” value was “repressed”.
